The target of one assay is T1, DNA topoisomerase 1 (Homo sapiens, UniProt P11387).
T1 sequence (P11387 whole entry): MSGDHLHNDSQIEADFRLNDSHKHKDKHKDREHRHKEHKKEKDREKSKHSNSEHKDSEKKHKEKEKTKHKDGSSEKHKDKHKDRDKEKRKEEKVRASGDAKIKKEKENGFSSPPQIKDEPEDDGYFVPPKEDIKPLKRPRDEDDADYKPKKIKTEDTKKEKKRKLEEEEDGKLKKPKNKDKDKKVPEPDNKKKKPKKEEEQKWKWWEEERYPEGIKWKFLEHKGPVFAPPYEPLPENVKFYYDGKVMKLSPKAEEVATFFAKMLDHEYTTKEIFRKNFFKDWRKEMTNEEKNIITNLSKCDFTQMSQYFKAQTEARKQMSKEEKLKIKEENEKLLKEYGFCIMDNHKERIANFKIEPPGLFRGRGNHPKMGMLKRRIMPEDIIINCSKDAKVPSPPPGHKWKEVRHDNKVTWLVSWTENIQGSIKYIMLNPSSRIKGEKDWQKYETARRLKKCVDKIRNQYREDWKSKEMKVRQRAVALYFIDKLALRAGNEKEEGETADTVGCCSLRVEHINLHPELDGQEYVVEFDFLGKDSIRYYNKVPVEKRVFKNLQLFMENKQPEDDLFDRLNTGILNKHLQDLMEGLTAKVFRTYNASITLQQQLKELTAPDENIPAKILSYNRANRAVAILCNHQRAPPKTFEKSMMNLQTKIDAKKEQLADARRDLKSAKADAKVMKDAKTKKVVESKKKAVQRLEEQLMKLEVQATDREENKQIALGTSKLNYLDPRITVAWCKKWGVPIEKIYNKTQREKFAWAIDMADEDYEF
The assay is described as follows: Inhibition of human topoisomerase 1-mediated DNA cleavage assessed as accumulation of nicked DNA by ethidium bromide staining based electrophoregram.

Assay [1] in a line: Induction of pHOT1 DNA (unknown origin) cleavage assessed as conversion of supercoiled DNA to linear and nicked form of DNA at 5 to 500 uM after 30 mins by gel electrophoretic mobility assay.
Assay [2] concerns the target DNA topoisomerase 2-alpha (Homo sapiens) (UniProt P11388). The assay is described as follows: Inhibition of human topoisomerase 2 alpha-mediated DNA cleavage assessed as accumulation of nicked DNA at 0.06 to 10 uM by electrophoregram.
The target is the same in assay [3]. The assay is described as follows: Inhibition of human topoisomerase 2 alpha-mediated DNA cleavage assessed as accumulation of nicked DNA at 0.06 to 10 uM by ethidium bromide staining based electrophoregram.
Assay [4] has the same target. The assay is described as follows: Inhibition of human topoisomerase 2 alpha-mediated DNA cleavage assessed as linear form of plasmid by electrophoregram.
The target of assay [5] is T2, DNA topoisomerase 1 (Homo sapiens) (UniProt P11387).
T2 sequence (whole entry): T1 sequence (P11387 whole entry)
Particulars: 0.06 to 10 uM.
Description: Inhibition of human topoisomerase 1-mediated DNA cleavage assessed as accumulation of nicked DNA at 0.06 to 10 uM by ethidium bromide staining based electrophoregram

pIC50: −log10 of the molar value. Active and inactive are the calls of the source. The rule behind the calls is not given here.

Sequence of DNA topoisomerase 2-alpha (Homo sapiens) (P11388 whole entry): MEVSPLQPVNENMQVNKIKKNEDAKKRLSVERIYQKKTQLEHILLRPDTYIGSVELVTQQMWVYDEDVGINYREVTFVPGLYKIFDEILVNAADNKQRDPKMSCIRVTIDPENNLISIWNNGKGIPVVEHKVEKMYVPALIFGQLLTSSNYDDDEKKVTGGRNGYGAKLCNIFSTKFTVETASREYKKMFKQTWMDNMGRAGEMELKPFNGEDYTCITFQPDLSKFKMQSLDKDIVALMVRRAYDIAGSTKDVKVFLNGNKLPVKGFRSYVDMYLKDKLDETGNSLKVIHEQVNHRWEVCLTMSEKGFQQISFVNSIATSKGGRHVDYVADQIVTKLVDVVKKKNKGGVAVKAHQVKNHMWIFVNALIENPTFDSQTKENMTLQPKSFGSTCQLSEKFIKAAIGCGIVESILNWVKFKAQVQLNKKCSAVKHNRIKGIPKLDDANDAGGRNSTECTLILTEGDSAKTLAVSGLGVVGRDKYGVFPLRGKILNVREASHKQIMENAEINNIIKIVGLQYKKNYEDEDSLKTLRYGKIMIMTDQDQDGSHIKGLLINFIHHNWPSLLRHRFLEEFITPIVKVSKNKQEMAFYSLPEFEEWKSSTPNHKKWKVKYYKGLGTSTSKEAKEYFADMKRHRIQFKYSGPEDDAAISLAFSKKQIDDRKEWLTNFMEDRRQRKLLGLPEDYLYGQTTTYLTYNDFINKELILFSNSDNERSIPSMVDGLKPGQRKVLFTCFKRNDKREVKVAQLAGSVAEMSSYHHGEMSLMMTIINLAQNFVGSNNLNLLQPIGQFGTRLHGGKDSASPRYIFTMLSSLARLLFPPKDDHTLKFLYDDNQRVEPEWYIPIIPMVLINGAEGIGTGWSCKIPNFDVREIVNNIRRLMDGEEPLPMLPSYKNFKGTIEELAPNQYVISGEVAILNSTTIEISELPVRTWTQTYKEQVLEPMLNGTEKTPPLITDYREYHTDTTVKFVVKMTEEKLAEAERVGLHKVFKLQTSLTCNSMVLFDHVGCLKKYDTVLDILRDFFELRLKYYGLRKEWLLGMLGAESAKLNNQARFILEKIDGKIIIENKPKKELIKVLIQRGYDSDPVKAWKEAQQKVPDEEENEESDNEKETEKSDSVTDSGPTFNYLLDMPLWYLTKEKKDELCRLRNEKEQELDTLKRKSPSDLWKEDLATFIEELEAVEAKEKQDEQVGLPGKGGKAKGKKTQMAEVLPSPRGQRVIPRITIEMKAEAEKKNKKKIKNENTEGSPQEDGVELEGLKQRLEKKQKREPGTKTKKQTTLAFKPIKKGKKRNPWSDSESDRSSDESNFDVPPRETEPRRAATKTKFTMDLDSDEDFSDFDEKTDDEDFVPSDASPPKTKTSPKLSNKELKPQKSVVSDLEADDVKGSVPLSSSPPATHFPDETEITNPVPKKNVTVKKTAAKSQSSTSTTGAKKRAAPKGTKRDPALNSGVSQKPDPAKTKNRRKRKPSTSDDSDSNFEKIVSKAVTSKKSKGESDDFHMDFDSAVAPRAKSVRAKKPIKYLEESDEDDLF

As for `CCCCCCCCCC/C=C\CC/C=C\CCCC(=O)O`, the pIC50 (as a rule, −log10 of the IC50, conventionally taken in molar units) at DNA topoisomerase 1 was 6.09.

Turning to `O=C(O)CCC/C=C\CC/C=C\Cc1ccccc1`, the outcome in assay [1] was Active. Moreover, the pIC50 on DNA topoisomerase 1 is 6.17. Further, the inhibition result in assay [2], in assay [3] and in assay [5] was “Active” throughout. The inhibition entry in assay [4] was “Dose-dependent effect”.

Values taken from ChEMBL document CHEMBL3425460, “Stereoselective synthesis of 11-phenylundeca-5Z,9Z-dienoic acid and investigation of its human topoisomerase I and IIα inhibitory activity” (Bioorg Med Chem Lett, 2015).
